Test results as given in the supplement of paper PMC10307832.

Assays:
Assay in all cases: relative viability (nuclei count vs DMSO), 5 days (fraction); higher = more cells survive
[1] = tested on: NCI-H2228
Method in brief: (§1)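 Cells from lung cancer lines were seeded into 1536-well plates and, one day later, dosed by pin tool. Treatments were either a single drug or a fixed dose of an anchor drug with five library-drug doses (not always all listed) in √10 steps. After 5 days, nuclei were stained in a one-step fixation (final 0.05% Triton X-100, 1% formaldehyde, 1 ug/ml Hoechst) and counted on 4× images, and relative viability is the treated-to-vehicle nuclei ratio, as the median of duplicate plates.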

[2] = tested on: NCI-H2347
Method in brief: as §1

[3] = tested on: NCI-H3122
Method in brief: as §1

[4] = tested on: NCI-H322M
Method in brief: as §1

[5] = tested on: NCI-H358
Method in brief: as §1

[6] = tested on: NCI-H441
Method in brief: as §1

[7] = tested on: NCI-H460
Method in brief: as §1

[8] = tested on: NCI-H520
Method in brief: as §1

[9] = tested on: NCI-H596
Method in brief: as §1

[10] = tested on: NCI-H650
Method in brief: as §1

[11] = tested on: NCI-H838
Method in brief: as §1

[12] = tested on: SW 1573
Method in brief: as §1

Compound `O=C(O)CCCCC(CCSCc1ccccc1)SCc1ccccc1` (configuration not stated) [CPI-613] + Cc1nc(Nc2ncc(C(=O)Nc3c(C)cccc3Cl)s2)cc(N2CCN(CCO)CC2)n1 [Dasatinib] (partner 0.075 µM) has a relative viability ([1]; first compound 50 µM) of 0.437, a relative viability ([1]; first compound 158.11 µM) of 0.231 and a relative viability ([1]; first compound 500 µM) of 0.0527. For the same compound, the relative viability ([2]; first compound 5 µM) was 0.295, the relative viability ([2]; first compound 15.81 µM) was 0.308 and the relative viability ([2]; first compound 50 µM) was 0.227. It also gave a relative viability ([2]; first compound 158.11 µM) of 0.315, a relative viability ([2]; first compound 500 µM) of 0.327 and a relative viability ([3]; first compound 5 µM) of 0.795. For the same compound, the relative viability ([3]; first compound 15.81 µM) was 0.693, the relative viability ([3]; first compound 50 µM) was 0.802 and the relative viability ([3]; first compound 158.11 µM) was 0.702. The relative viability ([3]; first compound 500 µM) was 0.28, the relative viability ([4]; first compound 5 µM) was 0.248 and the relative viability ([4]; first compound 15.81 µM) was 0.245. For the same compound, the relative viability ([4]; first compound 50 µM) was 0.257, the relative viability ([4]; first compound 158.11 µM) was 0.23 and the relative viability ([4]; first compound 500 µM) was 0.0545. For the same compound, the relative viability ([5]; first compound 15.81 µM) was 0.145, the relative viability ([5]; first compound 50 µM) was 0.146 and the relative viability ([5]; first compound 158.11 µM) was 0.157. For the same compound, the relative viability ([5]; first compound 500 µM) was 0.0248, the relative viability ([6]; first compound 5 µM) was 0.581 and the relative viability ([6]; first compound 15.81 µM) was 0.52. It also gave a relative viability ([6]; first compound 50 µM) of 0.484, a relative viability ([6]; first compound 158.11 µM) of 0.3 and a relative viability ([6]; first compound 500 µM) of 0.044. For the same compound, the relative viability ([7]; first compound 5 µM) was 0.54, the relative viability ([7]; first compound 15.81 µM) was 0.454 and the relative viability ([7]; first compound 50 µM) was 0.572. The relative viability ([7]; first compound 158.11 µM) was 0.334, the relative viability ([7]; first compound 500 µM) was 0.317 and the relative viability ([8]; first compound 5 µM) was 0.188. The relative viability ([8]; first compound 15.81 µM) was 0.17, the relative viability ([8]; first compound 50 µM) was 0.202 and the relative viability ([8]; first compound 158.11 µM) was 0.168. For the same compound, the relative viability ([8]; first compound 500 µM) was 0.149, the relative viability ([9]; first compound 5 µM) was 0.647 and the relative viability ([9]; first compound 15.81 µM) was 0.616. It also gave a relative viability ([9]; first compound 50 µM) of 0.628, a relative viability ([9]; first compound 158.11 µM) of 0.465 and a relative viability ([9]; first compound 500 µM) of 0.0504. The relative viability ([10]; first compound 5 µM) was 0.474, the relative viability ([10]; first compound 15.81 µM) was 0.366 and the relative viability ([10]; first compound 50 µM) was 0.424. The relative viability ([10]; first compound 158.11 µM) was 0.345, the relative viability ([10]; first compound 500 µM) was 0.361 and the relative viability ([11]; first compound 5 µM) was 0.285. The relative viability ([11]; first compound 15.81 µM) was 0.237, the relative viability ([11]; first compound 50 µM) was 0.286 and the relative viability ([11]; first compound 158.11 µM) was 0.261. It also gave a relative viability ([11]; first compound 500 µM) of 0.243, a relative viability ([12]; first compound 5 µM) of 0.452 and a relative viability ([12]; first compound 15.81 µM) of 0.503. For the same compound, the relative viability ([12]; first compound 50 µM) was 0.467, the relative viability ([12]; first compound 158.11 µM) was 0.118 and the relative viability ([12]; first compound 500 µM) was 0.0385.
